The term EC50 denotes the concentration giving half of the maximal effect.

This assay deals with T1, hGPR120 (Homo sapiens, UniProt Q5NUL3).
T1 construct: expressed in transfected cells; host or cells: CHO-K1
T1 sequence (Q5NUL3 1-361): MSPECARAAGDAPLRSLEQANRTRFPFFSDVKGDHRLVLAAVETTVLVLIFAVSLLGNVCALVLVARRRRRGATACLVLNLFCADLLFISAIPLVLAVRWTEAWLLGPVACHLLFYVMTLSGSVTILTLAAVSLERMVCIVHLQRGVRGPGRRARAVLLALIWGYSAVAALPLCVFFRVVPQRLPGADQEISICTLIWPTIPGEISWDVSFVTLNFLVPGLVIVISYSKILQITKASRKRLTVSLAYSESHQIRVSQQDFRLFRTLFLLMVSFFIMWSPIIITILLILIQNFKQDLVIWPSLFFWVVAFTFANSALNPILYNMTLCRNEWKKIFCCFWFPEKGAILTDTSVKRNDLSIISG
Description: Measurement of activity of GPR120 agonist (cell-based calcium fluorescence assay). The following applies: CHO-K1 cells expressing Ga16 and hGPR120, Calcium 5 dye fluorescence; activity class; read-out: EC50. In short, it runs like this:
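CHO-K1 cells co-expressing Gα16 and hGPR120, plated 18 h, loaded with Calcium 5 dye for 1 h at 37 °C, then given serially diluted agonists (final 0.5% DMSO). Fluorescence increase expressed as relative % of the 1% DMSO-only signal.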
On to `O=C(O)CCCSc1c(F)cc(-c2cccc(OC3CCC3)c2)cc1F` [Example 134, 4-(3′-cyclobutoxy-3,5-difluoro-biphenyl-4-ylsulfanyl)-butyric acid], for which the EC50 was below 200 nM.

As for `CCCOc1cccc(-c2cc(F)c(SCCCC(=O)O)c(F)c2)n1` [Example 136, 4-[2,6-difluoro-4-(6-propoxy-pyridin-2-yl)-phenylsulfanyl]-butyric acid], the EC50 is below 200 nM.

For `CC(C)Oc1cccc(-c2cc(F)c(SCCCC(=O)O)c(F)c2)n1` [Example 137, 4-[2,6-difluoro-4-(6-isopropoxy-pyridin-2-yl)-phenylsulfanyl]-butyric acid], the EC50 was below 200 nM.

In the case of `CC(C)Oc1ncccc1-c1cc(F)c(SCCCC(=O)O)c(F)c1` [Example 138, 4-[2,6-difluoro-4-(2-isopropoxy-pyridin-3-yl)-phenylsulfanyl]-butyric acid], the EC50 is below 200 nM.

Regarding `CCCOc1ncccc1-c1cc(F)c(SCCCC(=O)O)c(F)c1` [Example 139, 4-[2,6-difluoro-4-(2-propoxy-pyridin-3-yl)-phenylsulfanyl]-butyric acid], the EC50 is below 200 nM.

Turning to `CC(C)Sc1cccc(-c2cc(F)c(SCCCC(=O)O)c(F)c2)n1` [Example 140, 4-[2,6-difluoro-4-(6-isopropylsulfanyl-pyridin-2-yl)-phenylsulfanyl]-butyric acid], the EC50 is below 200 nM.

`CCCSc1cccc(-c2cc(F)c(SCCCC(=O)O)c(F)c2)n1` [Example 141, 4-[2,6-difluoro-4-(6-propylsulfanyl-pyridin-2-yl)-phenylsulfanyl]-butyric acid]: the EC50 is below 200 nM.

Consider `O=C(O)CCCSc1c(F)cc(-c2cccnc2SC2CCC2)cc1F` [Example 142, 4-[4-(2-cyclobutylsulfanyl-pyridin-3-yl)-2,6-difluoro-phenylsulfanyl]-butyric acid], for which the EC50 was below 200 nM.

In the case of `O=C(O)CCCSc1ccc(-c2cccnc2OC2CCC2)cc1` [Example 143, 4-[4-(2-cyclobutoxy-pyridin-3-yl)-phenylsulfanyl]-butyric acid], the EC50 was in the range of 200 to 2000 nM.

Turning to `O=C(O)CCCSc1c(F)cc(-c2cccnc2OC2CCC2)cc1F` [Example 144, 4-[4-(2-cyclobutoxy-pyridin-3-yl)-2,6-difluoro-phenylsulfanyl]-butyric acid], the half-maximal effective concentration (EC50) was below 200 nM.

In the case of `O=C(O)CCCSc1c(F)cc(-c2cccnc2OC2CCCC2)cc1F` [Example 145, 4-[4-(2-cyclopentyloxy-pyridin-3-yl)-2,6-difluoro-phenylsulfanyl]-butyric acid], the EC50 was below 200 nM.

For the compound `CC(C)Sc1ncccc1-c1cc(F)c(SCCCC(=O)O)c(F)c1` [Example 146, 4-[2,6-difluoro-4-(2-isopropylsulfanyl-pyridin-3-yl)-phenylsulfanyl]-butyric acid], the half-maximal effective concentration (EC50) is below 200 nM.

For the compound `O=C(O)CCCSc1c(F)cc(-c2cccnc2SC2CCCC2)cc1F` [Example 147, 4-[4-(2-cyclopentylsulfanyl-pyridin-3-yl)-2,6-difluoro-phenylsulfanyl]-butyric acid], the EC50 was below 200 nM.

On to `CC(C)Sc1ncccc1-c1ccc(SCCCC(=O)O)cc1` [Example 148, 4-[4-(2-isopropylsulfanyl-pyridin-3-yl)-phenylsulfanyl]-butyric acid], for which the EC50 was below 200 nM.

Consider `O=C(O)CCCSc1ccc(-c2cccnc2SC2CCCC2)cc1` [Example 149, 4-[4-(2-cyclopentylsulfanyl-pyridin-3-yl)-phenylsulfanyl]-butyric acid], for which the EC50 is below 200 nM.

On to `O=C(O)CCCSc1ccc(-c2cccnc2SC2CCC2)cc1F` [Example 152, 4-[4-(2-cyclobutylsulfanyl-pyridin-3-yl)-2-fluoro-phenylsulfanyl]-butyric acid], for which the EC50 is below 200 nM.

Regarding `O=C(O)CCCSc1ccc(-c2cccnc2SC2CCC2)cc1` [Example 153, 4-[4-(2-cyclobutylsulfanyl-pyridin-3-yl)-phenylsulfanyl]-butyric acid], the EC50 was below 200 nM.

Turning to `O=C(O)CCCSc1c(F)cc(-c2cccc(OC3CCC3)n2)cc1F` [Example 154, 4-[4-(6-cyclobutoxy-pyridin-2-yl)-2,6-difluoro-phenylsulfanyl]-butyric acid], the EC50 was below 200 nM.

For `O=C(O)CCCSc1c(F)cc(-c2cccc(OC3CCCC3)n2)cc1F` [Example 155, 4-[4-(6-cyclopentyloxy-pyridin-2-yl)-2,6-difluoro-phenylsulfanyl]-bytyric acid], the EC50 is below 200 nM.

In the case of `O=C(O)CCCSc1ccc(-c2cccc(SC3CCC3)n2)cc1` [Example 156, 4-[4-(6-cyclobutylsulfanyl-pyridin-2-yl)-phenylsulfanyl]-butyric acid], the EC50 was below 200 nM.

As to `O=C(O)CCCSc1c(F)cc(-c2cccc(SC3CCC3)n2)cc1F` [Example 158, 4-[4-(6-cyclobutylsulfanyl-pyridin-2-yl)-2,6-difluoro-phenylsulfanyl]-butyric acid], the EC50 is below 200 nM.

In the case of `O=C(O)CCCSc1c(F)cc(-c2cccc(SC3CCCC3)n2)cc1F` [Example 159, 4-[4-(6-cyclopentylsulfanyl-pyridin-2-yl)-2,6-difluoro-phenylsulfanyl]-butyric acid], the EC50 is below 200 nM.

As for `O=C(O)CCCSc1ccc(-c2ccccc2NC2CCCC2)cc1F` [Example 160, 4-(2′-cyclopentylamino-3-fluoro-biphenyl-4-ylsulfanyl)-butyric acid], the EC50 was below 200 nM.

With `O=C(O)CCCSc1c(F)cc(-c2ccccc2NC2CCCC2)cc1F` [Example 161, 4-(2′-cyclopentylamino-3,5-difluoro-biphenyl-4-ylsulfanyl)-butyric acid], the EC50 is below 200 nM.

As for `O=C(O)CCCSc1c(F)cc(-c2ccccc2NCC2CC2)cc1F` [Example 162, 4-[2′-(cyclopropylmethyl-amino)-3,5-difluoro-biphenyl-4-ylsulfanyl]-butyric acid], the EC50 is below 200 nM.

As for `CC(C)Sc1ncccc1-c1ccc(SCCCC(=O)O)c(F)c1` [Example 163, 4-[2-fluoro-4-(2-isopropylsulfanyl-pyridin-3-yl)-phenylsulfanyl]butyric acid], the EC50 was below 200 nM.

Regarding `O=C(O)CCCSc1ccc(-c2cccnc2SC2CCCC2)cc1F` [Example 164, 4-[4-(2-cyclopentylsulfanyl-pyridin-3-yl)-2-fluoro-phenylsulfanyl]-butyric acid], the EC50 was below 200 nM.

As for `CC(C)Nc1ccccc1-c1cc(F)c(SCCCC(=O)O)c(F)c1` [Example 165, 4-(3,5-difluoro-2′-isopropylamino-biphenyl-4-ylsulfanyl)-butyric acid], the EC50 is below 200 nM.

Consider `CCCNc1ccccc1-c1cc(F)c(SCCCC(=O)O)c(F)c1` [Example 166, 4-(3,5-difluoro-2′-propylamino-biphenyl-4-ylsulfanyl)-butyric acid], for which the EC50 is below 200 nM.

Regarding `CCCSc1ncccc1-c1cc(F)c(SCCCC(=O)O)c(F)c1` [Example 168, 4-[2,6-difluoro-4-(2-propylsulfanyl-pyridin-3yl)-phenylsulfanyl]-butyric acid], the EC50 was below 200 nM.

Consider `O=C(O)CCCSc1ccc(-c2cccc(SC3CCC3)n2)cc1F` [Example 169, 4-[4-(6-cyclobutylsulfanyl-pyridin-2-yl)-2-fluoro-phenylsulfanyl]-butyric acid], for which the EC50 was below 200 nM.

`O=C(O)CCCSc1ccc(-c2cccnc2NC2CCCC2)cc1F` [Example 170, 4-[4-(2-cyclopentylamino-pyridin-3-yl)-2-fluoro-phenylsulfanyl]-butyric acid]: the half-maximal effective concentration (EC50) was below 200 nM.

For `CC(C)Oc1ncccc1-c1ccc(SCCCC(=O)O)c(F)c1` [Example 171, 4-[2-fluoro-4-(2-isopropoxy-pyridin-3-yl)-phenylsulfanyl]-butyric acid], the EC50 was below 200 nM.

On to `O=C(O)CCCSc1ccc(-c2cccnc2OC2CCC2)cc1F` [Example 172, 4-[4-(2-cyclobutoxy-pyridin-3-yl)-2-fluoro-phenylsulfanyl]-butyric acid], for which the EC50 is below 200 nM.

Regarding `O=C(O)CCCSc1ccc(-c2cccnc2N2CCCC2)cc1F` [Example 173, 4-[2-fluoro-4-(2-pyrrolidin-1-yl-pyridin-3-yl)-phenylsulfanyl]-butyric acid], the EC50 lay within 200 to 2000 nM.

For `CC(C)Nc1ncccc1-c1ccc(SCCCC(=O)O)c(F)c1` [Example 174, 4-[2-fluoro-4-(2-isopropylamino-pyridin-3-yl)-phenylsulfanyl]-bytyric acid], the 50% effective concentration (EC50) lay within 200 to 2000 nM.

For `O=C(O)CCCSc1ccc(-c2cc(F)ccc2NC2CCCC2)cc1F` [Example 175, 4-(2′-cyclopentylamino-3,5′-difluoro-biphenyl-4-ylsulfanyl)-butyric acid], the EC50 was below 200 nM.

With `O=C(O)CCCSc1ccc(-c2cc(F)ccc2NC2CCCC2)cc1` [Example 176, 4-(2′-cyclopentylamino-5′-fluoro-biphenyl-4-ylsulfanyl)-butyric acid], the 50% effective concentration (EC50) is below 200 nM.

As to `Cc1ccc(OC2CCCC2)c(-c2ccc(SCCCC(=O)O)cc2)c1` [Example 177, 4-(2′-cyclopentyloxy-5′-methyl-biphenyl-4-ylsulfanyl)-butyric acid], the EC50 was in the range of 200 to 2000 nM.

In the case of `O=C(O)CCCSc1ccc(-c2cc(F)ccc2OC2CCCC2)cc1` [Example 179, 4-(2′-cyclopentyloxy-5′-fluoro-biphenyl-4-ylsulfanyl)-butyric acid], the EC50 was in the range of 200 to 2000 nM.
